In US6548522B1, “Method for treating conditions related to the glutamate receptor using carboxylic acid amide derivatives” (Hoffmann-La Roche Inc., priority 1999, dated 2003):

Legend:
rat mGlu1a receptor = biological target: T1, rat mGlu1a receptor (Rattus norvegicus, UniProt P23385); assay: [Ca2+]i measurement (FLIPR) on mGlu1a transfected EBNA cells; format: cell-based; conditions: for agonist or antagonist on group I mGlu receptor: mode of action, in words; for EC50: mGlu1a transfected EBNA cells, Fluo-3 AM, antagonists tested against 10 μM glutamate as agonist
T1 construct: expressed in transfected cells; host or cells: EBNA cells (transient transfection)
Experimental: cDNA encoding for rat mGlula receptor obtained from Prof.
[Ca^2+]i measurement were performed on mGlu1a transfected EBNA cells after incubation of the cells with Fluo-3 AM (0.5 μM final concentration) for 1 hour at 37° C. followed by 4 washes with assay buffer (DMEM supplemented with Hank's salt and 20 mM HEPES). [Ca^2+]i measurement were done using a fluorometric imaging plate reader (FLIPR, Molecular Devices Corporation, La Jolla, Calif., USA). When compounds were evaluated as antagonists they were tested against 10 μM glutamate as agonist.
The inhibition (antagonists) or activation (agonists) curves were fitted with a four parameter logistic equation giving EC50, IC50and Hill coefficient using the iterative non linear curve fitting software Origin (Microcal Software Inc., Northampton, Mass., USA).

T1 sequence (P23385 19-1199): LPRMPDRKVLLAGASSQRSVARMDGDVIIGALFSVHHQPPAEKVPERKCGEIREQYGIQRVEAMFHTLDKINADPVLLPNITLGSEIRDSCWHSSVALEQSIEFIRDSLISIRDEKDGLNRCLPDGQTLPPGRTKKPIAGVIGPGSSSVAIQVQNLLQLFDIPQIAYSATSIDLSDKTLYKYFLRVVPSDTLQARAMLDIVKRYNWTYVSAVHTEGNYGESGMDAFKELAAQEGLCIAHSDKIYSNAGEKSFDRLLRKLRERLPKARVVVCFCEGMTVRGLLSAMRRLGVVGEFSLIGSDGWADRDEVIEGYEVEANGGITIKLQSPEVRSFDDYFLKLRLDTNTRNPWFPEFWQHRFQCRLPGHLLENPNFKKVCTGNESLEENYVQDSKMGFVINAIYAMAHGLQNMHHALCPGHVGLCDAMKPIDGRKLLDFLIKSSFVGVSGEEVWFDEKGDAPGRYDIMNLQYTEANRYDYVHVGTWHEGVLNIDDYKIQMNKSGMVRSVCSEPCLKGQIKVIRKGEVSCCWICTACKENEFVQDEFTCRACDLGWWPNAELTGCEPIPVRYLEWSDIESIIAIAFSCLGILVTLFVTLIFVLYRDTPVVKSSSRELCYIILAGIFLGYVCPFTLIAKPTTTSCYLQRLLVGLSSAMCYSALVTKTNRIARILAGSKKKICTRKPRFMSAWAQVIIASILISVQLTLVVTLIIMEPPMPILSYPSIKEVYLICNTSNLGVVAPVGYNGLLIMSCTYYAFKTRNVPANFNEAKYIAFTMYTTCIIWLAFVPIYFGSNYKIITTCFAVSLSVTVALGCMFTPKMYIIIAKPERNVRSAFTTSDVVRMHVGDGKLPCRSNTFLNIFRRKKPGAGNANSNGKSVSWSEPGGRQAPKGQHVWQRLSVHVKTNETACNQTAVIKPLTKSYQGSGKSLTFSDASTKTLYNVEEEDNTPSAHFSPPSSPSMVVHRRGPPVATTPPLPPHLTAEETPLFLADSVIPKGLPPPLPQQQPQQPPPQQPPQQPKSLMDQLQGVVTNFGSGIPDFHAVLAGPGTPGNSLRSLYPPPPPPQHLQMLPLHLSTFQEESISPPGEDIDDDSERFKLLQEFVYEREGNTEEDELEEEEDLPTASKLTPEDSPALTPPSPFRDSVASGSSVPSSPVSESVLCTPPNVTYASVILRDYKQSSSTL

Row | SMILES | agonist or antagonist on group I mGlu receptor (rat mGlu1a receptor) | melting point [°C] | EC50 (rat mGlu1a receptor) [µM]
1 | O=C(NCC1CC1)C(c1ccccc1)c1ccccn1 (racemic) [Example 22, (RS)-N-Cyclopropylmethyl-2-phenyl-2-pyridin-2-yl-acetamide] | antagonistic activity | – | –
2 | CCCCCNC(=O)C(c1ccccc1)c1ccccc1 [Example 1, N -Pentyl-2,2-diphenyl-acetamide] | – | 101 | –
3 | CCCNC(=O)C(c1ccccc1)c1ccccc1 [Example 2, 2,2-Diphenyl-N-propyl-acetamide] | – | 90 | 2.12
4 | CCCNC(=O)C(C)(c1ccccc1)c1ccccc1 [Example 3, 2,2-Diphenyl-N-propyl-propionamide] | antagonistic activity | 62 | 12.7
5 | CCCCCNC(=O)C(C)(c1ccccc1)c1ccccc1 [Example 4, N-Pentyl-2,2-diphenyl-propionamide] | antagonistic activity | – | 1
6 | CCCCNC(=O)C(c1ccccc1)c1ccccc1 [Example 5, N-Butyl-2,2-diphenyl-acetamide] | – | 96 | –
7 | CCCCNC(=O)C(C)(c1ccccc1)c1ccccc1 [Example 6, N-Butyl-2,2-diphenyl-propionamide] | antagonistic activity | – | –
8 | O=C(NC1CC1)C(c1ccccc1)c1ccccc1 [Example 7, N-Cyclopropyl-2,2-diphenyl-acetamide] | – | 292 | 17
9 | CCCCCCCNC(=O)C(c1ccccc1)c1ccccc1 [Example 8, N-Heptyl-2,2-diphenyl-acetamide] | – | 90 | –
10 | CCCCCCNC(=O)C(c1ccccc1)c1ccccc1 [Example 9, N-Hexyl-2,2-diphenyl-acetamide] | – | 100 | –
11 | O=C(NCC1CC1)C(c1ccccc1)c1ccccc1 [Example 10, N-Cyclopropylmethyl-2,2-diphenyl-acetamide] | – | 130 | –
12 | CC(C(=O)NCC1CC1)(c1ccccc1)c1ccccc1 [Example 11, N-Cyclopropylmethyl-2,2-diphenyl-propionamide] | antagonistic activity | 380 | –
13 | CCNC(=O)C(c1ccccc1)c1ccccc1 [Example 12, N-Ethyl-2,2-diphenyl-acetamide] | – | 87 | –
14 | C=CCNC(=O)C(c1ccccc1)c1ccccc1 [Example 13, N-Allyl-2,2-diphenyl-acetamide] | – | 186 | –
15 | C#CCNC(=O)C(c1ccccc1)c1ccccc1 [Example 14, 2,2-Diphenyl-N-prop-2-ynyl-acetamide] | – | 131 | –
16 | CC(C)CCNC(=O)C(c1ccccc1)c1ccccc1 [Example 15, N-(3-Methyl-butyl)-2,2-diphenyl-acetamide] | – | 128 | –
17 | CCCC=CCNC(=O)C(c1ccccc1)c1ccccc1 [Example 16, N-Hex-2-enyl-2,2-diphenyl-acetamide] | – | 81 | –
18 | CC=CCCCNC(=O)C(c1ccccc1)c1ccccc1 [Example 17, N-Hex-4-enyl-2,2-diphenyl-acetamide] | – | 85 | –
19 | COCCCCCNC(=O)C(c1ccccc1)c1ccccc1 [Example 18, N-(5-Methoxy-pentyl)-2,2-diphenyl-acetamide] | – | 74.2 to 75 | –
20 | COCCCCNC(=O)C(c1ccccc1)c1ccccc1 [Example 19, N-(4-Methoxy-butyl)-2,2-diphenyl-acetamide] | – | 75.5 to 76.8 | 2.98
21 | CCOCCNC(=O)C(c1ccccc1)c1ccccc1 [Example 20, N-(2-Ethoxy-ethyl)-2,2-diphenyl-acetamide] | – | 83.5 to 86.2 | –
22 | CCCOCCNC(=O)C(c1ccccc1)c1ccccc1 [Example 21, 2,2-Diphenyl-N-(2-propoxy-ethyl)-acetamide] | – | 77.8 to 78.9 | 3.13
23 | CC(C(=O)NCC1CCC1)(c1ccccc1)c1ccccc1 [Example 25, N-Cyclobutylmethyl-2,2-diphenyl-propionamide] | antagonistic activity | 79 | –
24 | O=C(NCCCC(F)(F)F)C(c1ccccc1)c1ccccc1 [Example 26, 2,2-Diphenyl-N-(4,4,4-trifluoro-butyl)-acetamide] | antagonistic activity | 166 | 15
25 | CC(C(=O)NCCCC(F)(F)F)(c1ccccc1)c1ccccc1 [Example 27, 2,2-Diphenyl-N-(4,4,4-trifluoro-butyl)-propionamide] | antagonistic activity | 82 | –
26 | C#CCCCNC(=O)C(c1ccccc1)c1ccccc1 [Example 28, N-Pent-4-ynyl-2,2-diphenyl-acetamide] | – | 90 | –
